The experiment concerns the target T1, AKR1C1 (Homo sapiens, UniProt Q04828).
T1 construct: made in house
T1 sequence (Q04828 1-323): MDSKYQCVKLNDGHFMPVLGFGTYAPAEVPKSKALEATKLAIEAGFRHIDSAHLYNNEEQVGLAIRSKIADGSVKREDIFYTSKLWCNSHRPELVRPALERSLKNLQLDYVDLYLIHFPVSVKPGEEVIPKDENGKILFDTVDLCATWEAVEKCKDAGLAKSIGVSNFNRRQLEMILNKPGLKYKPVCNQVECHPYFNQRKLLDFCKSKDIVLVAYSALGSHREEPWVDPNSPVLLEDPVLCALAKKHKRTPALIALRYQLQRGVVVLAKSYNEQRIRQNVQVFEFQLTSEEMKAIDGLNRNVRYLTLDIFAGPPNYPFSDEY
Briefly: Inhibition of recombinant AKR1C1, oxidation of 1-acenaphthenol, progress-curve analysis. The class given is biochemical. As to conditions: for k+3: irreversible binding of second inhibitor molecule to E-NADH-I; for k+2: irreversible binding of second inhibitor molecule to E-NAD-I. On the procedure: To investigate the effect of ten selected ruthenium compounds, we measured their effect on the time course of oxidation of the artificial substrate 1-acenaphtenol by recombinant enzymes AKR1C1–3. The recombinant enzymes AKR1C1–AKR1C3 were prepared as described previously ([Brozic et al., 2006]). Since the artificial substrate is racemic, the oxidation follows a double exponential pattern as described previously ([Traven et al., 2015]). The in vitro catalytic activity of AKR1C1–3 enzymes was determined spectrophotometrically by monitoring the increase in NADH absorbance at 340 nm (ε(λ340) = 6220 M^−1cm^−1) in the presence of the substrate 1-acenaphthenol. Enzymatic reactions (300 µL) were performed in 100 mm potassium phosphate buffer (pH 9.0), 0.005% (v/v) TritonX-114, 5% (v/v) DMSO, containing 2.3 mm NAD^+ and 1-acenaphthenol at final concentrations of 90, 180, and 250 µM for AKR1C1, AKR1C2, and AKR1C3, respectively. A total of 5 µL of a tested compound in DMSO was added to the reaction mixture. The final concentrations of the tested compounds ranged from 1 to 200 μM, depending on the extent of inhibition (Supplementary Data). The reaction was started by adding 15 µL of AKR1C1, AKR1C2, or AKR1C3 dissolved in 1x PBS (pH 7.3) at final concentrations of 0.11, 0.16, and 1.5 µM, respectively. AKR1C1–3 activity was measured at 37°C for 3 h without shaking using a PowerWave XS microplate reader (Biotek; Winooski, VT, United States). Measurements at seven different concentrations were performed in duplicates or triplicates (Supplementary Figures S2). To mechanistically explain all the obtained progress curves for each ruthenium complex on each enzyme by a common reaction scheme, we extended the originally proposed scheme so that the interaction of the ruthenium complex with apo- and holoenzyme was allowed to be rapid and followed by a slow irreversible association of a second ruthenium complex molecule. However, the affinity of the Ru complexes for the apoenzymes was much lower so this part was excluded from the proposed kinetic model for clarity (Figure 4).
FIGURE 4 Reaction scheme for the oxidation of 1-acenaphtenol by AKR1C1-3 and its inhibition by ruthenium compounds. E represents apoenzyme, E-NAD and E-NADH represent holoenzyme with bound NAD^+ and NADH, respectively. A and B are enantiomers of substrate 1-acenaphtenol. Symbols which include I (ruthenium compound) represent holoenzyme in complex with one or two inhibitor molecules. KNAD, KNADH, and K2-3 are equilibrium constants and k+2–3 are second-order association rate constants for the binding of the second inhibitor molecule to the enzyme. The progress curves for each enzyme in the presence of ruthenium complexes were analyzed by the WEB server ENZO (https://enzo.cmm.ki.si/) designed exactly for such purposes ([Bevc et al., 2011]).

The mark [1] stands for this setting: reversible binding to holoenzyme E-NADH, read-out: K3.
Setting [2] is: reversible binding to holoenzyme E-NAD, read-out: K2.

Here are results for nine compounds from article PMC9403717, “Ruthenium complexes show potent inhibition of AKR1C1, AKR1C2, and AKR1C3 enzymes and anti-proliferative action against chemoresistant ovarian cancer cell line” (Frontiers in Pharmacology, 2022).

pKi: −log10 of the molar value. Like-named read-outs stand apart in the source and are kept apart here.

Consider `Cc1ccc(C(C)C)cc1.O=C(C=C([O][Ru][Cl])c1ccc(I)cc1)C(F)(F)F` [Compound 1], for which the “k+3” value turned out to be 9.4 M⁻¹ s⁻¹. Besides, under setting [1], the pKi was 7.67.

As to `C1N2CN3CN1CP(C2)C3.Cc1ccc(C(C)C)cc1.F[P-](F)(F)(F)(F)F.O=C(C=C([O][Ru+])c1ccc(I)cc1)C(F)(F)F` [Compound 2], the “k+2” value was found to be 25.9 M⁻¹ s⁻¹. Further, under setting [2], the pKi is 5.55.

For `CN(C)c1ccc(C(=CC(=O)C(F)(F)F)[O][Ru][Cl])cc1.Cc1ccc(C(C)C)cc1` [Compound 3, (η^6-p-cymene)chlorido(4,4,4-trifluoro-1-(4-(dimethylamino)phenyl)-1,3-butandionato)ruthenium(II)], the “k+2” value came to 31.5 M⁻¹ s⁻¹ and the “k+3” value worked out at 4.3 M⁻¹ s⁻¹. Under setting [2], the pKi is 3.97. Besides, the pKi under setting [1] was 7.37.

Consider `Cc1ccc(C(C)C)cc1.O=C(C=C([O][Ru][Cl])c1ccc2c(c1)OCO2)C(F)(F)F` [Compound 5], for which the “k+3” value was found to be 6.0 M⁻¹ s⁻¹. Besides, the pKi under setting [1] is 7.63.

As for `C1N2CN3CN1CP(C2)C3.Cc1ccc(C(C)C)cc1.F[P-](F)(F)(F)(F)F.O=C(C=C([O][Ru+])c1ccc2c(c1)OCO2)C(F)(F)F` [Compound 6], the “k+2” value was 48.8 M⁻¹ s⁻¹. Besides, the pKi under setting [2] was 5.51.

On to `Cc1ccc(C(C)C)cc1.[Cl-].[O-]c1c(I)cc(Cl)c2cccnc12.[Ru+2]` [Compound 7], for which the “k+3” value stood at 17.1 M⁻¹ s⁻¹. Moreover, the pKi under setting [1] was 6.46.

In the case of `C1N2CN3CN1CP(C2)C3.Cc1ccc(C(C)C)cc1.F[P-](F)(F)(F)(F)F.[O-]c1c(I)cc(Cl)c2cccnc12.[Ru+2]` [Compound 8], under setting [2], the pKi was 6.46.

Take `Cc1ccc(C(C)C)cc1.O=[N+]([O-])c1ccc([O][Ru][Cl])c2ncccc12` [Compound 9, (η ^6-p-Cymene) (nitroxolinato)chloridoruthenium (II)]: the “inhibitory effect (in words)” value is recorded as “very weak inhibitory effect” and the “irreversible inhibition (in words)” value is given as “virtually no irreversible inhibition”. The pKi under setting [2] was 3.64.

On to `C1N2CN3CN1CP(C2)C3.Cc1ccc(C(C)C)cc1.F[P-](F)(F)(F)(F)F.O=[N+]([O-])c1ccc([O][Ru+])c2ncccc12` [Compound 10, (η ^6-p-cymene)(nitroxolinato)(pta)ruthenium(II) hexafluorophosphate], for which the “k+2” value turned out to be 13.5 M⁻¹ s⁻¹. The pKi under setting [2] is 4.30.
